Assay results: PMC6715681, “A high-throughput screen to identify novel synthetic lethal compounds for the treatment of E-cadherin-deficient cells” (Scientific Reports, 2019)

Experiments:
Assay type in all cases: cell-based, human
[1] = system: MCF10A WT cells; test: xCELLigence real-time impedance assay (cell proliferation index)
Description: (§1) The xCELLigence real-time system quantifies electrical impedance as a measurement of cell viability which is expressed as the cell proliferation index. […] This was due to drug effects and briefly removing plates from the incubator for the addition of compounds and controls. Despite a slower adhesion time for MCF10A CDH1^−/−, consistent with our previous finding[3] the DMSO control treated cells had similar slopes of 0.17 and 0.15 for MCF10A WT and MCF10A CDH1^−/−, respectively.
(§2) Figure 10 Real-time xCELLigence data for lead compounds 8 and 11. (A) Timeline for the real-time cellular assay. Plates were seeded 4,000 cells/well as described in the Methods. (B,C) Data shown is a representative experiment of two biological replicates, performed in 96-well xCELLigence E-plates. Error bars are SD. Measurements were taken every 15 minutes. The cell proliferation index was calculated using the RTCA software. (B) Cells were treated with SLEC-8. (C) Cells were treated with SLEC-11.
(§3) Cells were seeded into each well of Corning’s black walled, clear bottom 96-well plates with a total volume of 100 μL per well. Edge wells were excluded. Both isogenic cell lines were seeded into the same plate to mitigate plate-to-plate variation. Plates for real-time analysis were transferred to the xCELLigence platform (ACEA Biosciences, USA) or the IncuCyte FLR imaging system (Essen BioScience, USA) as previously described.

[2] = system: MCF10A CDH1^−/− cells; test: as above; settings: for SL differential between the two cell lines (in words): xCELLigence real-time assay, SLEC-8 at 10 μM, SLEC-11 at 20 μM
Description: as §1, §2, §3

[3] = system: MCF10A WT cells; test: 11-point dose-response screen, cell titre blue (CTB) viability; settings: Homo sapiens, MCF-10A, 11-point screen; for EC50: CTB, read-out: MCF10A WT CTB EC50
Description: (§4) The 11-point dose-response screen evaluated a concentration range from 0.02 µM to 20 µM for both isogenic cell lines in duplicate biological replicates (Fig. 4). One limitation to metabolism-based cellular assays is that a change in read out (fluorescence, luminescence or absorbance) may not necessarily be caused by cell death and could instead result from a cessation of proliferation due to senescence or inhibited mitochondrial respiration. For this reason, a direct measurement of cell counts using cellular imaging of nuclei stained with Hoechst 33342 was also included at the 11-point screening stage. For the CTB 11-point screen all plates had acceptable Z’ values above 0.4, with the second biological replicate having 70% above 0.6 (Fig. 4A). The Z’ values for the high-content imaging (HCI) 11-point screen plates were above 0.4 for MCF10A WT, except one plate from biological replicate two with 0.396 (Fig. 4B). However, for MCF10A CDH1^−/− HCI data, only four plates were above a Z’ of 0.4 and the mean Z’ was 0.32 compared to a mean of 0.51 for MCF10A WT. A further quality metric known as the strictly standardized mean difference (SSMD)[40] is a less conservative approach for QC and a cut-off of >3 is generally used. The mean SSMD value was 7.04 for MCF10A WT and 5.27 for MCF10A CDH1^−/− plates and indicates the MCF10A CDH1^−/− HCI data was acceptable[41]. There was a good correlation between the top hits from the HCI and CTB 11-point screening with an overlap of 31 / 40 for the top 40 compounds selected from the eventual hit selection strategies.
(§5) MCF10A WT and MCF10A CDH1^−/− cells were seeded into Corning black walled, clear bottom 384-well plates (assay plates) using a multidrop 384 reagent dispenser (Thermo Fisher Scientific) and a total volume of 50 μL per well.
(§6) As we have shown MCF10A CDH1^−/− cells have a prolonged lag to log phase growth of around 24 hours, in order to achieve a similar confluence at 72 hours post seeding MCF10A WT and MCF10A CDH1^−/− cell lines were seeded at 600 cells/well and 800 cells/well, respectively. Following seeding, plates were left for one hour at RT without stacking[46] and then centrifuged at 500 × g (RCF) for one minute. Plates were then transferred to an incubator at 37 °C and 5% CO2. At 24 hours post seeding, the MiniTrak robotic liquid handling system (Perkin Elmer) was used to transfer 352 compounds per 384-well library plate to the first 22 columns of a 384-well assay plate containing cells to achieve a 10 μM final compound concentration for the pilot, primary and single-point confirmation screens. For the 11-point dose-response screen, compounds were added to columns 1–22, but excluding edge rows A and P of the library plate to reduce edge-effects (Supplementary Fig. 2). The controls of DMSO (0.2% v/v), doxorubicin (EC80) and entinostat (EC50) were added into columns 23–24 of each assay plate (Supplementary Table 1). Cell titre blue[47] was made in-house in sterile PBS from 597 μM resazurin, 78 μM methylene blue, 1 mM potassium hexacyanoferrate (III) and 1 mM potassium hexacyanoferrate (II) trihydrate. At 69 hours post seeding, 16.7% v/v CTB was added to plates and they were incubated at 37 °C for 3 hours (Supplementary Fig. 1). At 72 hours post seeding, plates were removed from the incubator and left for 30 minutes at RT to equalise the temperature across all wells of the plates and reduce fluorescence-based edge effects before reading on an EnVision (PerkinElmer) at 550 nm excitation and 590 nm emission to quantify cell viability.
(§7) Supplementary Table 1. Killing control and SL control effective concentrations.
(§8) Doxorubicin EC80 0.3 µM 0.4 µM
(§9) MCF10A WT cells were seeded at 600/well and MCF10A CDH1-/- cells at 800/well in 384-well plates. Drugs
(§10) were added at 24 hours post seeding and CTB was used as an end-point assay. Concentrations were normalized

[4] = system: MCF10A CDH1^−/− cells; test: as above; settings: for EC50: Homo sapiens, MCF-10A
Description: as §4, §5, §6, §7, §8, §9, §10

[5] = system: MCF10A CDH1^−/− cells; test: 11-point dose-response screen, high-content imaging (HCI) of Hoechst 33342 nuclei; settings: 11-point screen; for EC50: Homo sapiens, MCF-10A, HCI
Description: as §4
A direct measurement of cell counts using cellular imaging of nuclei was also included at the 11-point screening stage. Plates were fixed, washed and stained using an ELx405 Select deep well washer (BioTek). Media was first aspirated leaving 10 μL/well, then 4% w/v PFA was added and plates left for 15 minutes at RT. Plates were then washed twice with PBS-T, before aspirating all permeabilization buffer and adding Hoechst 33342 (1 μg/mL final) in PBS. Plates were then stored in the dark at 4 °C, until being imaged on a BD Pathway 855. Two 10x images per well were taken and cell counts enumerated using CellProfiler[48].

CC(O)CNCc1ccc(OCc2ccc(Cl)cc2Cl)cc1 (stereo not drawn) [SLEC-8]
Recovery of MCF10A WT cells (in words) ([1]; 10 μM, by 60 hours post seeding): able to fully recover | SL differential between the two cell lines (in words) [2]: significant SL differential | Decrease in cell proliferation index compared to DMSO ([2]; xCELLigence, 10 μM, 60 hours post seeding): 2.7 fold | EC50 [3]: 17.5 µM | EC50 ([4]; 11-point screen, CTB, read-out: MCF10A CDH1^-/- CTB EC50): 7.66 µM | EC50 ratio between MCF10A WT and MCF10A CDH1^−/− cells ([5]; value corresponds to the HCI EC50s of Fig. 5): 5.03 fold change | EC50 [5]: 2.02 µM

COc1ccc2nc(C)cc(NCc3ccc(F)cc3)c2c1 [SLEC-11, N-(4-Fluorobenzyl)-6-methoxy-2-methylquinolin-4-amine]
Difference in cell proliferation index to DMSO in MCF10A WT cells (in words) ([1]; 20 μM, 62 hours post seeding): no difference | SL differential between the two cell lines (in words) [2]: significant SL differential | Difference in cell proliferation index between compound and DMSO (maximum) ([2]; xCELLigence, 20 μM, 62 hours post seeding): 7.9 fold | EC50 [3]: > 20 µM | activity at 20 µM ([3]; viability of WT cells at highest concentration 20 μM, read-out: MCF10A WT POC at 20 μM): 100% | Differential at 20 μM ([4]; 11-point screen, MCF10A WT – MCF10A CDH1−/− POC at 20 μM): 106.45 | EC50 ([4]; 11-point screen (0.02–20 µM), CTB values, averaged between two biological replicates, Supplementary Table 2, read-out: MCF10A CDH1 -/- EC50): 6.96 µM | EC50 [5]: 7.34 µM
